Data from ChEMBL document CHEMBL4804286, “3-amino-4-(4-(4 (dimethylcarbamoyl) phenyl)-1,4-diazepan-1-yl) thieno [2,3-b] pyridine-2-carboxamide for use in cancer therapy and formulations comprising the same” (2020).
Values joined by “and” are separate entries in the source; they are usually repeats but may differ in a detail not shown here. Equal values may be shown once. Active and inactive are the calls of the source. No cut-off for these calls is given here.

Tests used:
[1] = biological target: Cyclin-dependent kinase-like 1 (Homo sapiens) (UniProt Q00532); test: Inhibition of human CDKL1 assessed as percent of control at 2000 nM by KINOMEscan assay relative to control; set-up: scale not given: the % may be the effect or the level left
Chain of Cyclin-dependent kinase-like 1 (Homo sapiens) (Q00532 whole entry): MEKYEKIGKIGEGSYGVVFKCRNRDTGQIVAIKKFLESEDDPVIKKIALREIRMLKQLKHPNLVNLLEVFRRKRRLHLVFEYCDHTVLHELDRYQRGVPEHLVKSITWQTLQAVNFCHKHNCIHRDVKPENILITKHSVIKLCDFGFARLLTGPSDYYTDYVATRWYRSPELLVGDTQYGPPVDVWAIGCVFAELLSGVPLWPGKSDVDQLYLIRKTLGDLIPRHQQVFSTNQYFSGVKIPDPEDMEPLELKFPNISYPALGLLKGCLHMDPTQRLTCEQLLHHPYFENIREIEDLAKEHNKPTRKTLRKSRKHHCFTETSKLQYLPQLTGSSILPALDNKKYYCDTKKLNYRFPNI

[2] = biological target: Dual specificity protein kinase CLK2 (Homo sapiens) (UniProt P49760); test: Inhibition of human CLK2 assessed as percent of control at 2000 nM by KINOMEscan assay relative to control; set-up: scale not given: the % may be the effect or the level left
[3] = test system: Epidermal growth factor receptor (Homo sapiens), P00533 [UNDEFINED MUTATION]; test: Inhibition of human EGFR L747-E749del/A750P double mutant assessed as percent of control at 2000 nM by KINOMEscan assay relative to control; set-up: scale not given: the % may be the effect or the level left
[4] = biological target: Ephrin type-B receptor 2 (Homo sapiens) (UniProt P29323); test: Inhibition of human EPHB2 assessed as percent of control at 2000 nM by KINOMEscan assay relative to control; set-up: scale not given: the % may be the effect or the level left
[5] = biological target: Vascular endothelial growth factor receptor 1 (Homo sapiens) (UniProt P17948); test: Inhibition of human FLT1 assessed as percent of control at 2000 nM by KINOMEscan assay relative to control; set-up: scale not given: the % may be the effect or the level left
[6] = biological target: Vascular endothelial growth factor receptor 3 (Homo sapiens) (UniProt P35916); test: Inhibition of human FLT4 assessed as percent of control at 2000 nM by KINOMEscan assay relative to control; set-up: scale not given: the % may be the effect or the level left
[7] = biological target: Tyrosine-protein kinase FRK (Homo sapiens) (UniProt P42685); test: Inhibition of human FRK assessed as percent of control at 2000 nM by KINOMEscan assay relative to control; set-up: scale not given: the % may be the effect or the level left
[8] = biological target: Insulin receptor (Homo sapiens) (UniProt P06213); test: Inhibition of human INSR assessed as percent of control at 2000 nM by KINOMEscan assay relative to control; set-up: scale not given: the % may be the effect or the level left
[9] = biological target: Interleukin-1 receptor-associated kinase 1 (Homo sapiens) (UniProt P51617); test: Inhibition of human IRAK1 assessed as percent of control at 2000 nM by KINOMEscan assay relative to control; set-up: scale not given: the % may be the effect or the level left
Chain of Interleukin-1 receptor-associated kinase 1 (Homo sapiens) (P51617 whole entry, looked up): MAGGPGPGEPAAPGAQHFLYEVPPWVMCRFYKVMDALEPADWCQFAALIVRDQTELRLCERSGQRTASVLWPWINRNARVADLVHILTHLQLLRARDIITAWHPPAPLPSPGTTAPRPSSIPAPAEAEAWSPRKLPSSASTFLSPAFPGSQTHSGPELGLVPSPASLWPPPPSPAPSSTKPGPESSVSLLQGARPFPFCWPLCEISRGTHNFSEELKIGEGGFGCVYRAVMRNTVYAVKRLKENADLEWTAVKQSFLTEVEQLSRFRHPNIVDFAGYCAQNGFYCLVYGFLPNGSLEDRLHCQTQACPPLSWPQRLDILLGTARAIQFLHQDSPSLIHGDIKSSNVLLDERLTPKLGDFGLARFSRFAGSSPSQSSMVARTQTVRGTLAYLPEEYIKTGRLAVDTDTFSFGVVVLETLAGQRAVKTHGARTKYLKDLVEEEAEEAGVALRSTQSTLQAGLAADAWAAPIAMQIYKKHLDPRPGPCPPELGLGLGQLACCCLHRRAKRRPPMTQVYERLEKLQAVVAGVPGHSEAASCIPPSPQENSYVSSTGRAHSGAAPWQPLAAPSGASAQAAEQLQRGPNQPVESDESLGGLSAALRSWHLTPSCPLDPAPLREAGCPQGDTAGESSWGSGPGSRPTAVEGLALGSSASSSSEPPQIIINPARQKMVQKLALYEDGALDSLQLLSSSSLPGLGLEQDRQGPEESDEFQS

[10] = biological target: Interleukin-1 receptor-associated kinase 3 (Homo sapiens) (UniProt Q9Y616); test: Inhibition of human IRAK3 assessed as percent of control at 2000 nM by KINOMEscan assay relative to control; set-up: scale not given: the % may be the effect or the level left
[11] = biological target: Interleukin-1 receptor-associated kinase 4 (Homo sapiens) (UniProt Q9NWZ3); test: Inhibition of human IRAK4 assessed as percent of control at 2000 nM by KINOMEscan assay relative to control; set-up: scale not given: the % may be the effect or the level left
[12] = biological target: Tyrosine-protein kinase ITK/TSK (Homo sapiens) (UniProt Q08881); test: Inhibition of human ITK assessed as percent of control at 2000 nM by KINOMEscan assay relative to control; set-up: scale not given: the % may be the effect or the level left
[13] = test system: Mast/stem cell growth factor receptor Kit (Homo sapiens), P10721 [V559D,T670I]; test: Inhibition of human KIT V559D/T670I double mutant assessed as percent of control at 2000 nM by KINOMEscan assay relative to control; set-up: scale not given: the % may be the effect or the level left
[14] = biological target: Serine/threonine-protein kinase LATS1 (Homo sapiens) (UniProt O95835); test: Inhibition of human LATS1 assessed as percent of control at 2000 nM by KINOMEscan assay relative to control; set-up: scale not given: the % may be the effect or the level left
[15] = biological target: Leucine-rich repeat serine/threonine-protein kinase 2 (Homo sapiens) (UniProt Q5S007); test: Inhibition of human LRRK2 assessed as percent of control at 2000 nM by KINOMEscan assay relative to control; set-up: scale not given: the % may be the effect or the level left
[16] = biological target: Mitogen-activated protein kinase kinase kinase 2 (Homo sapiens) (UniProt Q9Y2U5); test: Inhibition of human MAP3K2 assessed as percent of control at 2000 nM by KINOMEscan assay relative to control; set-up: scale not given: the % may be the effect or the level left
[17] = biological target: Dual specificity mitogen-activated protein kinase kinase 1 (Homo sapiens) (UniProt Q02750); test: Inhibition of human MEK1 assessed as percent of control at 2000 nM by KINOMEscan assay relative to control; set-up: scale not given: the % may be the effect or the level left
[18] = biological target: Maternal embryonic leucine zipper kinase (Homo sapiens) (UniProt Q14680); test: Inhibition of human MELK assessed as percent of control at 2000 nM by KINOMEscan assay relative to control; set-up: scale not given: the % may be the effect or the level left
Chain of Maternal embryonic leucine zipper kinase (Homo sapiens) (Q14680 whole entry, looked up): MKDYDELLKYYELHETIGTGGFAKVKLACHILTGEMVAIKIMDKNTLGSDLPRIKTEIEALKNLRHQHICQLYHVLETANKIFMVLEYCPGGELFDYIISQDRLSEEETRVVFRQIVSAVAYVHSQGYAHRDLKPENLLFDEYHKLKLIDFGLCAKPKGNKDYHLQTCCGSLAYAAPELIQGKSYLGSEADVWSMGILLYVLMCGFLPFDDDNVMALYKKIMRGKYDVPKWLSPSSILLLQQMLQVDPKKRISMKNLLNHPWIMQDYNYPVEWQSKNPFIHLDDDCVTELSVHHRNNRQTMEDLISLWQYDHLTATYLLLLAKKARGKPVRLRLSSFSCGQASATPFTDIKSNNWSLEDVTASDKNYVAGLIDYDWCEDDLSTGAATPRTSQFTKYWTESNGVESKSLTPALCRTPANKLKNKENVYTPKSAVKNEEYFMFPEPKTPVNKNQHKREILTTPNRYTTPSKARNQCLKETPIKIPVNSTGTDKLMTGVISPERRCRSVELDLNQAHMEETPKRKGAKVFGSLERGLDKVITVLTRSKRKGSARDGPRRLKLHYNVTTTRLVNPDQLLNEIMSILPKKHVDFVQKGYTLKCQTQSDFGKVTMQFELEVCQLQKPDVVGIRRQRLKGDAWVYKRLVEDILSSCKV

[19] = biological target: Misshapen-like kinase 1 (Homo sapiens) (UniProt Q8N4C8); test: Inhibition of human MINK assessed as percent of control at 2000 nM by KINOMEscan assay relative to control; set-up: scale not given: the % may be the effect or the level left
Chain of Misshapen-like kinase 1 (Homo sapiens) (Q8N4C8 whole entry, looked up): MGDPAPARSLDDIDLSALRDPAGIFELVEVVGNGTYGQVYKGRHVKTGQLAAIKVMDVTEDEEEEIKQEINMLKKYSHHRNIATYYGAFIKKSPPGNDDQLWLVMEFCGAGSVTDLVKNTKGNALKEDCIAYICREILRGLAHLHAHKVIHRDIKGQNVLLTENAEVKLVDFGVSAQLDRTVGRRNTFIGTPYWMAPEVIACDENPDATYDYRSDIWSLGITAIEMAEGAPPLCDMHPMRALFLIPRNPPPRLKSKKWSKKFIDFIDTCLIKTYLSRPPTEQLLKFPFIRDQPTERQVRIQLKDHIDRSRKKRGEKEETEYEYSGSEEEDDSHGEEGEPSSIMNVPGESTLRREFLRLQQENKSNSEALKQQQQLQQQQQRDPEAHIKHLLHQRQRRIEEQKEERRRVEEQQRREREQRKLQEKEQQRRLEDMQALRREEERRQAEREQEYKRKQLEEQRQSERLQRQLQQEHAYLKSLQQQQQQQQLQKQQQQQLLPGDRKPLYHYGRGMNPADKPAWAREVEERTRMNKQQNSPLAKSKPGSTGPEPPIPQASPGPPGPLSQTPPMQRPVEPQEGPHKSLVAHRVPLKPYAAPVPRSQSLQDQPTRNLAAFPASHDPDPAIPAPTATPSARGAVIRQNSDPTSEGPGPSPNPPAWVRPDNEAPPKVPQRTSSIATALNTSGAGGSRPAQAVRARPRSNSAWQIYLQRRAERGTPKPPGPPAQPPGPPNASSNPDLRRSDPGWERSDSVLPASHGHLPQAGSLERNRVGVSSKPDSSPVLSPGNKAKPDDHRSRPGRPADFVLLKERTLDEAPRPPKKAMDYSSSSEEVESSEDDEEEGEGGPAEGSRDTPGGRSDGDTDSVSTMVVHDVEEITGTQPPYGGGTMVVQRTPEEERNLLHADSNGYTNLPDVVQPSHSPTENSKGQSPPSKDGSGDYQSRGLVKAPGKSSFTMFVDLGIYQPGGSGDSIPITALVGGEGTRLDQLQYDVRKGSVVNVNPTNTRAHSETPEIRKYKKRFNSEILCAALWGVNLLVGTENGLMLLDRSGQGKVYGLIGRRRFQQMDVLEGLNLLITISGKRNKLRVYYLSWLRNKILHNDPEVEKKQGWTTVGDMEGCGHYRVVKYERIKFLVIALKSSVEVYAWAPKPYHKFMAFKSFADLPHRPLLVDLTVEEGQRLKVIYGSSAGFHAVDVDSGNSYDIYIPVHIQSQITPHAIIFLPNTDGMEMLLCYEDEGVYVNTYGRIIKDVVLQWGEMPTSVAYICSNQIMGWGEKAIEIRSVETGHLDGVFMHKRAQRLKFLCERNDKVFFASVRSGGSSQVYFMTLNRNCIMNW

[20] = biological target: Serine/threonine-protein kinase mTOR (Homo sapiens) (UniProt P42345); test: Inhibition of human MTOR assessed as percent of control at 2000 nM by KINOMEscan assay relative to control; set-up: scale not given: the % may be the effect or the level left
[21] = biological target: Serine/threonine-protein kinase Nek11 (Homo sapiens) (UniProt Q8NG66); test: Inhibition of human NEK11 assessed as percent of control at 2000 nM by KINOMEscan assay relative to control; set-up: scale not given: the % may be the effect or the level left
[22] = biological target: Phosphatidylinositol 4,5-bisphosphate 3-kinase catalytic subunit delta isoform (Homo sapiens) (UniProt O00329); test: Inhibition of human PIK3CD assessed as percent of control at 2000 nM by KINOMEscan assay relative to control; set-up: scale not given: the % may be the effect or the level left
[23] = biological target: Serine/threonine-protein kinase N1 (Homo sapiens) (UniProt Q16512); test: Inhibition of human PKN1 assessed as percent of control at 2000 nM by KINOMEscan assay relative to control; set-up: scale not given: the % may be the effect or the level left
Chain of Serine/threonine-protein kinase N1 (Homo sapiens) (Q16512 2-942 limits assumed): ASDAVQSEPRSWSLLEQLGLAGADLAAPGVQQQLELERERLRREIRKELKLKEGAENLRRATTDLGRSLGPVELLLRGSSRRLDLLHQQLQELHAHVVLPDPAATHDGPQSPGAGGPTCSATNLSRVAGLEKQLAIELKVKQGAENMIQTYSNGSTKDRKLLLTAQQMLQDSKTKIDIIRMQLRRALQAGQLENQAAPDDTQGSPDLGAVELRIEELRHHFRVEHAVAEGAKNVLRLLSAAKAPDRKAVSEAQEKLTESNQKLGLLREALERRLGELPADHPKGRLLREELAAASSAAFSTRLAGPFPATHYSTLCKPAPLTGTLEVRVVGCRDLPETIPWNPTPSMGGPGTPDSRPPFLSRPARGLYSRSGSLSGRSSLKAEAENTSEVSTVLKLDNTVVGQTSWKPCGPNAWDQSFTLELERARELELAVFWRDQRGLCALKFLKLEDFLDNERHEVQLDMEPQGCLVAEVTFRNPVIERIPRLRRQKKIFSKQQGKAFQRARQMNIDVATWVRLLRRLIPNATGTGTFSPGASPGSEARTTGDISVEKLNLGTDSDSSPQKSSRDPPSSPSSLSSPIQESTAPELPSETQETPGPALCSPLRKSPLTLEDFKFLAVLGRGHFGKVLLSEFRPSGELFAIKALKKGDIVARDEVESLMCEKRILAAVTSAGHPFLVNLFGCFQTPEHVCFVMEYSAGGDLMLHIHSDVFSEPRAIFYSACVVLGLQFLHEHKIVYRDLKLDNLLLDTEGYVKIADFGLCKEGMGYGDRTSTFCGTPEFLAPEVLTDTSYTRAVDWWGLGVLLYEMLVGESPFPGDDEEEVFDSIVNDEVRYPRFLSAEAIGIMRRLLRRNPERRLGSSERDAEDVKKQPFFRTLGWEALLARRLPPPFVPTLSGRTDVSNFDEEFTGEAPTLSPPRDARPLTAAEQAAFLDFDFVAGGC

[24] = biological target: Serine/threonine-protein kinase N2 (Homo sapiens) (UniProt Q16513); test: Inhibition of human PKN2 assessed as percent of control at 2000 nM by KINOMEscan assay relative to control; set-up: scale not given: the % may be the effect or the level left
[25] = biological target: Serine/threonine-protein kinase RIO1 (Homo sapiens) (UniProt Q9BRS2); test: Inhibition of human RIOK1 assessed as percent of control at 2000 nM by KINOMEscan assay relative to control; set-up: scale not given: the % may be the effect or the level left
[26] = biological target: Rho-associated protein kinase 1 (Homo sapiens) (UniProt Q13464); test: Inhibition of human ROCK1 assessed as percent of control at 2000 nM by KINOMEscan assay relative to control; set-up: scale not given: the % may be the effect or the level left
[27] = biological target: Serine/threonine-protein kinase SIK1 (Homo sapiens) (UniProt P57059); test: Inhibition of human SIK assessed as percent of control at 2000 nM by KINOMEscan assay relative to control; set-up: scale not given: the % may be the effect or the level left
Chain of Serine/threonine-protein kinase SIK1 (Homo sapiens) (P57059 whole entry, the tested form may be a part): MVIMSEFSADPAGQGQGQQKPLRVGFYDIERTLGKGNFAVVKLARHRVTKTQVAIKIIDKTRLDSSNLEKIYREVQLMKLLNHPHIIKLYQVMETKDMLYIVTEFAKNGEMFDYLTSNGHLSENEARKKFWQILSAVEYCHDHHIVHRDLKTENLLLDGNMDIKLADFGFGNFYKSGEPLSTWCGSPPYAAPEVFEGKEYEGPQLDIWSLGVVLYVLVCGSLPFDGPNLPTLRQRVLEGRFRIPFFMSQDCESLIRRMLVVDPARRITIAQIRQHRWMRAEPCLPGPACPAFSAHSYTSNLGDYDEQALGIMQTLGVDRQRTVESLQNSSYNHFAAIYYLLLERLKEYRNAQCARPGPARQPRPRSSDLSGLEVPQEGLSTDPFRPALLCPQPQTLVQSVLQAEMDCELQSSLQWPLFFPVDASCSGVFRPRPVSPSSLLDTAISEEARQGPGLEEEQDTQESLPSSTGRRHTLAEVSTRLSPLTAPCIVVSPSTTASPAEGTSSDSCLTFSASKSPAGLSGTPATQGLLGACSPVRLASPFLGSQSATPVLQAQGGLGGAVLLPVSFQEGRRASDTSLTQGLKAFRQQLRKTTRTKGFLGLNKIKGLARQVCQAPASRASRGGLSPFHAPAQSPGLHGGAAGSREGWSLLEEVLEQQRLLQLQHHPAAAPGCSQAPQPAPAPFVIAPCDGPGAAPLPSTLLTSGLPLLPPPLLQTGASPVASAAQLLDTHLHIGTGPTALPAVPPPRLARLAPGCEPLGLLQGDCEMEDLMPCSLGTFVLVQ

[28] = biological target: Non-receptor tyrosine-protein kinase TYK2 (Homo sapiens) (UniProt P29597); test: Inhibition of human TYK2 JH1 catalytic domain assessed as percent of control at 2000 nM by KINOMEscan assay relative to control; set-up: scale not given: the % may be the effect or the level left
[29] = biological target: Serine/threonine-protein kinase 32C (Homo sapiens) (UniProt Q86UX6); test: Inhibition of human YANK3 assessed as percent of control at 2000 nM by KINOMEscan assay relative to control; set-up: scale not given: the % may be the effect or the level left
MDA-MB-468 = test: Antitumor activity against human MDA-MB-468 cells xenografted in female immunodeficient NSG mouse assessed as decrease in tumor weight at 250 ppm, po incorporated into medicated diet for 13 days followed by 5 mg/kg, po dose administered daily and after 37 days administered 8 mg/kg, po dose; assay type: functional, organism-based

Q: With `CN(C)C(=O)c1ccc(N2CCCN(c3ccnc4sc(C(N)=O)c(N)c34)CC2)cc1` as the compound, how does the Activity [1] read?
A: 100% and 92%

Q: And the Activity [2]?
A: 75% and 83%

Q: And the Activity [3]?
A: 99% and 100%

Q: What about the Activity [4] of the same compound?
A: 99% and 95%

Q: And the Activity [5]?
A: 100%

Q: And the Activity [6]?
A: 92% and 98%

Q: What about the Activity [7] of the same compound?
A: 100% and 97%

Q: What about the Activity [8] of the same compound?
A: 97% and 80%

Q: And the Activity [9]?
A: 94% and 84%

Q: And the Activity [10]?
A: 93% and 89%

Q: And the Activity [11]?
A: 89% and 78%

Q: And the Activity [12]?
A: 88% and 87%

Q: And the Activity [13]?
A: 100% and 96%

Q: What about the Activity [14] of the same compound?
A: 89% and 97%

Q: And the Activity [15]?
A: 94% and 70%

Q: And the Activity [16]?
A: 98% and 86%

Q: What about the Activity [17] of the same compound?
A: 93% and 83%

Q: What about the Activity [18] of the same compound?
A: 75% and 84%

Q: What about the Activity [19] of the same compound?
A: 100% and 87%

Q: What about the Activity [20] of the same compound?
A: 88% and 97%

Q: What about the Activity [21] of the same compound?
A: 90% and 86%

Q: What about the Activity [22] of the same compound?
A: 94% and 71%

Q: What about the Activity [23] of the same compound?
A: 96% and 100%

Q: What about the Activity [24] of the same compound?
A: 100%

Q: And the Activity [25]?
A: 100%

Q: And the Activity [26]?
A: 77% and 67%

Q: And the Activity [27]?
A: 84% and 79%

Q: What about the Activity [28] of the same compound?
A: 95% and 82%

Q: And the Activity [29]?
A: 81% and 97%

Q: What about the Activity (MDA-MB-468) of the same compound?
A: Active
